Experimental data published in article PMC6472001, “Phenolic Compounds from Humulus lupulus as Natural Antimicrobial Products: New Weapons in the Fight against Methicillin Resistant Staphylococcus aureus, Leishmania mexicana and Trypanosoma brucei Strains” (Molecules, 2019).
Like-named read-outs stand apart in the source and are kept apart here.

Assays:
S. aureus T26A4 (MSSA) = assay: Broth microdilution MIC; assay type: cell-based, Staphylococcus aureus; conditions: S. aureus T26A4 (MSSA)
Procedure: (§1) The protocol employed was inspired by Abedini et al. with some modifications. Products were solubilized in DMSO and serially diluted two-fold in MH medium. A bacterial suspension at 10^5 CFU/mL was added to obtain a final volume of 200 µL. Final phenolic product concentrations in wells ranged from 625 to 2.4 µg/mL (exception for lupulone for which dilutions were continued until 0.3 µg/mL). […] Plates were incubated overnight with stirring (60 rpm) at 37 °C.

S. aureus T25.10 (MRSA) = assay: Broth microdilution MIC; assay type: cell-based, Staphylococcus aureus; conditions: S. aureus T25.10 (MRSA)
Procedure: as §1

S. aureus 08143 (MSSA) = assay: Broth microdilution MIC; assay type: cell-based, Staphylococcus aureus; conditions: S. aureus 08143 (MSSA)
Procedure: as §1

S. aureus T28.1 (MRSA) = assay: Broth microdilution MIC; assay type: cell-based, Staphylococcus aureus
Procedure: as §1
For the following experiments, the MRSA strain T28.1, isolated from a pathological sample of osteitis, was used. It was previously characterized by DNA biochips, which allowed highlighting some β-lactamases and the SCC-mec genes confirming the methicillin resistance. Moreover, genes for enzymes and proteins involved in the capsule biosynthesis (capH5, capJ5 and capK5) and several intracellular adhesion proteins implicated in biofilm formation (icaA, icaC and icaD) were present.

S. aureus T28.1 = assay: Post-antibiotic effect (PAE); assay type: cell-based, Staphylococcus aureus; conditions: for Maximum Growth Retardation: 2 h exposure
Procedure: This method allows quantifying the delayed regrowth of a bacterial population following exposure to an active compound [76]. Stock solutions of xanthohumol, desmethylxanthohumol and lupulone were prepared in DMSO 20 times more concentrated than the desired final concentrations (MIC/4 to 4 × MIC). A 2 h pre-treatment with purified prenylated compounds was performed using 8.5 mL of BHI medium, 0.5 mL of purified product in DMSO and 1 mL of a bacterial suspension at 10^5 CFU/mL, incubated at 37 °C. […] The hop compound was then inactivated by a 1000-fold dilution. After inactivation, a growth curve was performed with counts at 30 min and every 2 h. The growth lag was quantified by comparison with the control, using the following formula: PAE=T−C
T is the time needed for the bacterial population to grow by 1 log(CFU/mL) at the given concentration, C is the corresponding time for the control (Figure 5)

S. aureus T28.1 biofilm = assay: Anti-biofilm: biofilm formation on artificial surface; assay type: cell-based, Staphylococcus aureus
Procedure: These experiments were inspired and adapted from Liu et al.. They were performed using a 96-well microplate with a flat bottom.
First, the effect of xanthohumol, desmethylxanthohumol and lupulone was assessed on the biofilm formation: 180 µL of BHI medium containing glucose at 10 mg/mL was added to each well of a 96-well microplate with 10 µL of the product previously solubilized in DMSO and 10 µL of a 10^5 CFU/mL bacterial suspension. The maximum concentration in DMSO was 5%. Final concentrations of purified products were from MIC/4 to 4 × MIC. After 24 h incubation at 37 °C, wells were voided and washed 3 times with phosphate buffered saline solution (PBS, Sigma-Aldrich, Saint-Quentin Fallavier, France). Plates were then dried and 150 µL of crystal violet solution at 20 mg/mL in MeOH (Sigma-Aldrich®, Saint-Quentin Fallavier, France) were added for 15 min. After removing crystal violet, 150 µL of EtOH were added to solubilize crystal violet present in adherent bacteria. The optical density was read at 570 nm.

[1] = test system: WI-38 cells (non-cancer lung fibroblasts); assay: Cytotoxicity / antiproliferative effect; assay type: cell-based, human
Procedure: (§2) Several human cell lines were used for the cytotoxic bioassays: non-cancer lung fibroblasts (WI-38), hepatocellular carcinoma (Hep-G2), osteosarcoma (MG-63) and the mouse monocyte macrophage J774. Cells were seeded into wells of a 96-well microplate in a Gibco™ Dulbecco’s modified eagles medium (DMEM), except for MG-63 which were cultivated in a minimum essential medium (MEM) (ThermoFisher Scientific, Illkirch-Graffenstaden, France). Both media were enriched with 10% FBS (ThermoFisher Scientific, France) and some antibiotics (mixture penicillin/streptomycin 100 UI/mL, Sigma Aldrich). After one or two days at 37 °C (5% of CO2), wells were emptied by suction. Cells were then treated with hops compounds (xanthohumol, desmethylxanthohumol, humulone, lupulone) in DMSO at 0.2% in the culture medium, to obtain a final volume of 100 µL in wells (negative control: 0.2% DMSO). Camptothecin was used as a positive control. After 48 to 72 h exposure, culture medium was replaced by 10% of Alamar blue or 3-(4,5-dimethylthiazol-2-yl)-2,5-diphenyltetrazolium bromide (MTT) in the medium (ThermoFisher Scientific®, Illkirch, France) and plates were incubated the time necessary to the reaction. Results were measured respectively by fluorescence (excitation 530 nm and emission 590 nm) or by optical density at 550 nm. The IC50 of each product was determined using GraphPad Prism (version 5.01).

[2] = test system: Hep-G2 cells (hepatocellular carcinoma); assay: Cytotoxicity / antiproliferative effect; assay type: cell-based, human
Procedure: as §2

[3] = test system: J774 cells (monocyte macrophage); assay: Cytotoxicity / antiproliferative effect; assay type: cell-based, mouse
Procedure: as §2

[4] = test system: Trypanosoma brucei brucei (Tbb); assay: Antiparasitic activity, broth microdilution; assay type: cell-based
Procedure: (§3) Tbb were cultivated in HMI9 medium containing 10% heat-inactivated foetal bovine serum (FBS) (Sigma-Aldrich), […] L-cysteine and […] beta-mercaptoethanol at 37 °C (CO2 5%). Lmm (MHOM/BZ/84/BEL46) were cultivated in SDM-79 medium (Gibco) supplemented with 15% heat-inactivated FBS (Sigma-Aldrich) and 5 mg/L hemin at 28 °C (CO2 5%). Antiparasitic bioassays were performed as described by Bero et al.. Suramin (SUR) and pentamidine (PEN) were used as positive controls respectively. The hops compounds (xanthohumol, desmethylxanthohumol, humulone, lupulone) concentration that inhibits 50% of the cell viability (IC50) was determined using GraphPad Prism, version 5.01 (GraphPad Software, San Diego, CA, USA).

[5] = test system: Leishmania mexicana mexicana (Lmm); assay: Antiparasitic activity, broth microdilution; assay type: cell-based
Procedure: as §3

[6] = Staphylococcus aureus, read-out: MIC
[7] = Staphylococcus aureus, value in parentheses, read-out: MIC
[8] = Staphylococcus aureus, S. aureus T28.1 (MRSA), read-out: MIC
[9] = Staphylococcus aureus, S. aureus T28.1 (MRSA), value in parentheses, read-out: MIC
[10] = Homo sapiens, read-out: IC50 ± SD
[11] = Homo sapiens, value in parentheses, read-out: IC50 (converted)
[12] = Homo sapiens, HepG2, read-out: IC50 ± SD
[13] = Homo sapiens, HepG2, value in parentheses, read-out: IC50 (converted)
[14] = Mus musculus, read-out: IC50 ± SD
[15] = Mus musculus, value in parentheses, read-out: IC50 (converted)
[16] = Trypanosoma brucei, read-out: IC50 (converted)
[17] = Trypanosoma brucei, value in parentheses, read-out: IC50 (converted)
[18] = Leishmania mexicana, read-out: IC50 (converted)
[19] = Leishmania mexicana, value in parentheses, read-out: IC50 (converted)
[20] = value in parentheses, read-out: MIC
[21] = value in parentheses, read-out: IC50 (converted)

Molecule | MIC (S. aureus T26A4 (MSSA); [6]) [µg/mL] | MIC (S. aureus T26A4 (MSSA); [7]) [µM] | MIC (S. aureus T25.10 (MRSA); [6]) [µg/mL] | MIC (S. aureus T25.10 (MRSA); [7]) [µM] | MIC (S. aureus 08143 (MSSA); [6]) [µg/mL] | MIC (S. aureus 08143 (MSSA); [7]) [µM] | MIC (S. aureus T28.1 (MRSA); [8]) [µg/mL] | MIC (S. aureus T28.1 (MRSA); [9]) [µM] | Maximum Growth Retardation (S. aureus T28.1; 2 × MIC) [h] | Maximum Growth Retardation (S. aureus T28.1; 4 × MIC) [h] | Maximum Growth Retardation (S. aureus T28.1; MIC/2) [h] | Maximum Growth Retardation (S. aureus T28.1; MIC) [h] | Biofilm formation on artificial surface (S. aureus T28.1 biofilm; sub-inhibitory concentrations) | IC50 [1, 10] [µg/mL] | IC50 [1, 11] [µM] | IC50 [2, 12] [µg/mL] | IC50 [2, 13] [µM] | IC50 [3, 14] [µg/mL] | IC50 [3, 15] [µM] | IC50 [4, 16] [µg/mL] | other results
CC(C)=CCc1c(O)cc(O)c(C(=O)/C=C/c2ccc(O)cc2)c1O [DMX, desmethylxanthohumol] | 39 | 115 | 19.5 | 57.3 | 39 | 115 | 39 | 115 | 2.29 | 2.34 | 2.10 | 2.32 | significant inhibition | 60.7 ± 2.5 | 178 | 22.4 ± 2.9 | 65.9 | 9.7 ± 1 | 28.5 | 7.7 ± 0.6 | IC50 [4, 17]: 22.6 µM; IC50 [5, 18]: 26.2 ± 1.8 µg/mL; IC50 [5, 19]: 77 µM
COc1cc(O)c(CC=C(C)C)c(O)c1C(=O)/C=C/c1ccc(O)cc1 [XN, xanthohumol] | 9.8 | 27.7 | 9.8 | 27.7 | 19.5 | 55 | 9.8 | 27.7 | 2.05 | 3.29 | 1.34 | 2.23 |  | 6.9 ± 0.5 | 19.5 | 2.5 ± 0.8 | 7.1 | 3.4 ± 0.5 | 9.6 | 2.4 ± 0.2 | Biofilm formation on artificial surface (S. aureus T28.1 biofilm; at the MIC): totally inhibited; Inhibition of biofilm formation (S. aureus T28.1 biofilm; at the MIC): ~100%; IC50 [4, 17]: 6.8 µM; IC50 [5, 18]: 6.1 ± 3.1 µg/mL; IC50 [5, 19]: 17.2 µM
lupulone |  |  |  |  |  |  |  |  |  | 0.47 | 0.26 | 0.53 | significant inhibition |  |  |  |  |  |  |  | MIC (S. aureus T26A4 (MSSA)): 0.6 µg/mL; MIC (S. aureus T26A4 (MSSA); [20]): 1.45 µM; MIC (S. aureus T25.10 (MRSA)): 0.6 µg/mL; MIC (S. aureus T25.10 (MRSA); [20]): 1.45 µM; MIC (S. aureus 08143 (MSSA)): 1.2 µg/mL; MIC (S. aureus 08143 (MSSA); [20]): 2.9 µM; MIC (S. aureus T28.1 (MRSA); S. aureus T28.1 (MRSA)): 1.2 µg/mL; MIC (S. aureus T28.1 (MRSA); S. aureus T28.1 (MRSA), value in parentheses, read-out: MIC): 2.9 µM; MIC (S. aureus T28.1 (MRSA); strain MRSA T28.1): 1.2 µg/mL; Maximum delay after inactivation (S. aureus T28.1; over all concentrations): ~55 min; IC50 ± SD [1]: 1.1 ± 0.0 µg/mL; IC50 [1, 21]: 2.6 µM; IC50 ± SD [2]: 1.2 ± 0.5 µg/mL; IC50 [2, 21]: 2.9 µM; IC50 ± SD [3]: 1.5 ± 0.1 µg/mL; IC50 [3, 21]: 3.6 µM; IC50 [4]: 0.9 ± 0.0 µg/mL; IC50 [4, 21]: 2.2 µM; IC50 [5]: 4.7 ± 0.1 µg/mL; IC50 [5, 21]: 11.3 µM
